Data: the OligoGym collection
“And” between values parts separate entries of the source, which are not always exact repeats. Equal values may be shown once. After the bases stand the sugars from the 5' end (letter, count) and the backbone: PS all phosphorothioate, else s phosphorothioate and o phosphodiester by linkage. Methylation of C is not given here. e = 2'-O-(2-methoxyethyl) (MOE); k = constrained ethyl (cEt); d = 2'-deoxy (DNA)

Molecular target: SOD1
Conditions: ASO

Sequence: GCCCTTCAGCACGCACA (sugars e2 k2 d9 k2 e2, PS)
- target mRNA inhibition (HepG2, 4 µM): 60%

Sequence: CAATTACACCACAAGCC (sugars e2 k2 d8 k2 e3, PS)
- target mRNA inhibition (HepG2, 4 µM): 58%

Sequence: TCCATGCAGGCCTTCAG (sugars e3 k2 d7 k2 e3, PS)
- target mRNA inhibition (HepG2, 3 µM): 18%

Sequence: CCATTACTTTCCTTCTG (sugars e3 k2 d7 k2 e3, PS)
- target mRNA inhibition (HepG2, 3 µM): 37%

Sequence: CAGTGTTTAATGTTTAT (sugars e2 k2 d8 k2 e3, PS)
- target mRNA inhibition (HepG2, 0.1875 µM): 30%
- target mRNA inhibition (HepG2, 0.75 µM): 61%
- target mRNA inhibition (HepG2, 3 µM): 79%
- target mRNA inhibition (HepG2, 4 µM): 75%
- target mRNA inhibition (HepG2, 5 µM): 77%
- target mRNA inhibition (HepG2, 12 µM): 81% and 87%

Sequence: CTTTCTTCATTTCCACC (sugars e3 k2 d7 k2 e3, PS)
- target mRNA inhibition (HepG2, 3 µM): 11%

Sequence: GAATGTTTATTGGGCGA (sugars e3 k2 d7 k2 e3, PS)
- target mRNA inhibition (HepG2, 3 µM): 14%

Sequence: TGGGCGATCCCAATTAC (sugars e2 k2 d8 k2 e3, PS)
- target mRNA inhibition (HepG2, 4 µM): 19%

Sequence: GATCATAAATCAGTTTC (sugars e2 k2 d9 k2 e2, PS)
- target mRNA inhibition (HepG2, 5 µM): 38%

Sequence: TCTTTGTCAGCAGTCACATT (sugars e5 d10 e5, PS)
- target mRNA inhibition (HepG2, 5 µM): 20% and 11%

Sequence: TTTCTCACTACAGGTAC (sugars e2 k2 d9 k2 e2, PS)
- target mRNA inhibition (HepG2, 5 µM): 45%

Sequence: TACATTTCTACAGCTA (sugars ekddddddddekekee, linkages s1 o1 s8 o3 s2)
- target mRNA inhibition (A431, 0.12 µM): 37%
- target mRNA inhibition (A431, 0.6 µM): 0%
- target mRNA inhibition (A431, 3 µM): 22%
- target mRNA inhibition (A431, 15 µM): 12%
- target mRNA inhibition (HepG2, 0.222 µM): 36%
- target mRNA inhibition (HepG2, 0.667 µM): 69%
- target mRNA inhibition (HepG2, 2 µM): 83%
- target mRNA inhibition (HepG2, 6 µM): 95%

Sequence: GCCTCAGACTACATCCA (sugars e2 k2 d9 k2 e2, PS)
- target mRNA inhibition (HepG2, 0.1875 µM): 34%
- target mRNA inhibition (HepG2, 0.75 µM): 59%
- target mRNA inhibition (HepG2, 3 µM): 87%
- target mRNA inhibition (HepG2, 4 µM): 82%
- target mRNA inhibition (HepG2, 12 µM): 95%

Sequence: CTTCACTGGTCCATTAC (sugars e3 k2 d7 k2 e3, PS)
- target mRNA inhibition (HepG2, 3 µM): 11%

Sequence: CACATTGCCCAAGTCTCCAA (sugars e5 d10 e5, PS)
- target mRNA inhibition (HepG2, 5 µM): 36% and 19%

Sequence: TAAGTGCCATACAGGGT (sugars e2 k2 d8 k2 e3, PS)
- target mRNA inhibition (HepG2, 5 µM): 26%

Sequence: TCTGACAAGTTTAATAC (sugars e2 k2 d9 k2 e2, PS)
- target mRNA inhibition (HepG2, 5 µM): 20%

Sequence: GGATACATTTCTACAGC (sugars e2 k2 d8 k2 e3, PS)
- target mRNA inhibition (HepG2, 0.1875 µM): 4%
- target mRNA inhibition (HepG2, 0.75 µM): 49%
- target mRNA inhibition (HepG2, 3 µM): 72%
- target mRNA inhibition (HepG2, 4 µM): 75%
- target mRNA inhibition (HepG2, 12 µM): 87%

Sequence: ACAGGTCATTGAAACAG (sugars e3 k2 d7 k2 e3, PS)
- target mRNA inhibition (HepG2, 3 µM): 14%

Sequence: ACAAGTTTAATACCCAT (sugars e2 k2 d9 k2 e2, PS)
- target mRNA inhibition (HepG2, 5 µM): 61%

Sequence: AGCACCCCGTCTCCGCGACT (sugars e5 d10 e5, PS)
- target mRNA inhibition (HepG2, 4 µM): 24%

Sequence: CCAAGTGATCATAAATCAGT (sugars e5 d10 e5, PS)
- target mRNA inhibition (HepG2, 5 µM): 39%

Sequence: TTCTGCTCGAAATTGAT (sugars e3 k2 d7 k2 e3, PS)
- target mRNA inhibition (HepG2, 3 µM): 18%

Sequence: CACACCTTCACTGGTCC (sugars e3 k2 d7 k2 e3, PS)
- target mRNA inhibition (HepG2, 3 µM): 12%

Sequence: TTACACCACAAGCCAAA (sugars e2 k2 d9 k2 e2, PS)
- target mRNA inhibition (HepG2, 4 µM): 63%

Sequence: AGTGTTTAATGTTTATC (sugars e2 k2 d8 k2 e3, linkages s1 o2 s9 o2 s2)
- target mRNA inhibition (A431, 0.12 µM): 31%
- target mRNA inhibition (A431, 0.6 µM): 68%
- target mRNA inhibition (A431, 3 µM): 83%
- target mRNA inhibition (A431, 15 µM): 86%
- target mRNA inhibition (HepG2, 0.222 µM): 68%
- target mRNA inhibition (HepG2, 0.667 µM): 76%
- target mRNA inhibition (HepG2, 2 µM): 86%
- target mRNA inhibition (HepG2, 6 µM): 84%

Sequence: GCGCCTCGCCCACTCTGGCC (sugars e5 d10 e5, PS)
- target mRNA inhibition (HepG2, 4 µM): 33%

Sequence: AGTGTTTAATGTTTAT (sugars ekddddddddekekee, linkages s1 o1 s8 o3 s2)
- target mRNA inhibition (A431, 0.12 µM): 10%
- target mRNA inhibition (A431, 0.6 µM): 22%
- target mRNA inhibition (A431, 3 µM): 48%
- target mRNA inhibition (A431, 15 µM): 77%

Sequence: TCTTCCAAGTGATCATA (sugars e2 k2 d8 k2 e3, PS)
- target mRNA inhibition (HepG2, 5 µM): 33%

Sequence: GATACATTTCTACAGCTAGC (sugars e5 d10 e5, PS)
- target mRNA inhibition (HepG2, 4 µM): 78%
- target mRNA inhibition (HepG2, 12 µM): 90%

Sequence: CAAGTGATCATAAATCA (sugars e2 k2 d8 k2 e3, PS)
- target mRNA inhibition (HepG2, 5 µM): 47%

Sequence: CTGCTTTTTCATGGACC (sugars e3 k2 d7 k2 e3, PS)
- target mRNA inhibition (HepG2, 3 µM): 65%

Sequence: TCCTTCTGCTCGAAATT (sugars e3 k2 d7 k2 e3, PS)
- target mRNA inhibition (HepG2, 3 µM): 14%

Sequence: CCCACTCTGGCCCCAAA (sugars e3 k2 d7 k2 e3, PS)
- target mRNA inhibition (HepG2, 3 µM): 15%

Sequence: ATACATTTCTACAGCT (sugars kekeddddddddekek, linkages s1 o3 s8 o1 s2)
- target mRNA inhibition (A431, 0.12 µM): 15%
- target mRNA inhibition (A431, 0.6 µM): 14%
- target mRNA inhibition (A431, 3 µM): 16%
- target mRNA inhibition (A431, 15 µM): 52%
- target mRNA inhibition (HepG2, 0.222 µM): 55%
- target mRNA inhibition (HepG2, 0.667 µM): 73%
- target mRNA inhibition (HepG2, 2 µM): 89%
- target mRNA inhibition (HepG2, 6 µM): 95%
